Assay results taken from patent EP0994713B1, “USE OF A 7alpha-METHYL-17alpha-ETHYNYL-ESTRANE DERIVATIVE FOR THE TREATMENT OF ATHEROSCLEROSIS” (Akzo Nobel N.V., priority 1997, dated 1998).

What was measured:
Assay type in all cases: in vivo, New Zealand White rabbits
[1] = Body weight at necropsy, cholesterol fed rabbit model; settings: cholesterol diet, OVX, necropsy at 20 weeks
Procedure: (§1) The model is considered relevant to the human atherosclerotic process, because the cellular events occurring during the development of the atherosclerotic lesions during the atherogenic diet are similar to those observed in different stages of atherosclerotic processes in coronary arteries.
(§2) An experiment was performed with 7 groups of sexually mature, virgin female New Zealand White rabbits (Harlan, Zeist, The Netherlands), age 7-9 months and weighing approximately 3 kg (number of […] per group: 13-14). During the acclimatization period the rabbits were fed a diet of standard commercial rabbit chow LKK20 (Hope Farms, Woerden, The Netherlands). Three weeks prior to the start of the experiment the animals were anaesthetized and underwent bilateral ovariectomy (OVX) or were sham operated. After three weeks, at the start of the experiment, the rabbits were randomized over the treatment groups. In all animals de-endothelialisation of a segment of the left carotid artery was applied by using the air-drying technique (Fishman, J.A. et al., "Endothelial regeneration in the rat carotid artery and the significance of endothelial denudation in the pathogenesis of myointimal thickening", Lab. Invest. 1975, 32, 339-351; and Lafont, A. et al., "Restenosis and experimental angioplasty: Intimal, medial and adventitial changes associated with constructive remodeling", Circulation Research, 1995, 76, 996-1002)
(§3) The animals were randomly allocated into 7 experimental groups using a randomized block design. The groups were fed an atherogenic diet (commercial rabbit chow (LKK20) enriched with 0.4 grams cholesterol, 3.75 grams coconut oil and 3.75 grams peanut oil per 100 grams). One group was fed the standard rabbit chow (LKK20). Food intake was restricted to 80 grams daily.
(§4) The treatments (Table I) were daily administered orally as a tablet, prepared as in Example 1. Groups 1, 2 and 3 were on a daily placebo treatment. Groups 4-5 were treated with 7α-methyl-17α-ethynyl-17β-hydroxy-estra-5(10)-en-3-one (OD-14; tibolone; 6 or 2 mg daily); group 6 with 17β-estradiol (4 mg daily). Group 7 was on treatment with 17β-estradiol decanoate (150 µg in 1 ml arachis oil injected subcutaneously once a week).
(§5) During the experiment blood samples were drawn out of the central ear artery after sedation with Hypnorm (0.1 ml i.m.) (Janssen Pharmaceutics, Beerse, Belgium) before the daily treatment, at week 4,8,12,16 and 20, to monitor the plasma cholesterol levels and to measure, at week 17, plasma estradiol levels and plasma tibolone levels. Twenty weeks after the start of the experiment animals were anaesthetized by an i.m. injection of Hypnorm (0.5 ml/kg). After blood sampling the rabbits were killed by exsanguination and the aortic arch, uterus and carotid artery removed for further analyses.
(§6) In addition to example 2 an additional experiment was performed with two lower doses of Org OD14 and a higher dose of estradiol decanoate. […] The procedures were identical to those in example 2.
(§7) Three weeks prior to the start of the experiment the animals were ovariectomized. At the start of the experiment the carotid artery was de-endothelialised using the air-drying technique. The normal rabbit chow was replaced by the atherogenic diet except for the control group which received during the experiment the normal rabbit chow.
(§8) The treatments (table II) of group 1, 2, 3 and 4 were daily administered orally as a tablet, prepared as in example 1. The doses of Org OD14 per tablet, however, were 0.6 mg and 0.15 mg respectively. Group 5 was on treatment with 17β-estradiol decanoate (300 µg in 1 ml arachis oil injected subcutaneously once a week). Twenty weeks after the start of the experiment was ended in the same manner as described in example 2.
(§9) After 20 weeks of diet and of daily treatment, necropsy was performed to determine the accumulation of cholesterol and fatty streaks in the aortic arch and the advanced lesions in the carotid artery. […]

[2] = system: female ovariectomized rabbits; assay: Uterus weight (estrogenic activity), cholesterol fed rabbit model; settings: for Uterus weight per 100 grams body weight: cholesterol diet, OVX, necropsy at 20 weeks
Procedure: as §1, §2, §3, §4, §5, §6, §7, §8, §9

[3] = system: female ovariectomized rabbits; assay: Vessel wall cholesterol measurement in the aortic arch; settings: for Cholesterol level in aortic arch: cholesterol diet, OVX, necropsy at 20 weeks
Procedure: as §1
An experiment was performed with 7 groups of sexually mature, virgin female New Zealand White rabbits (Harlan, Zeist, The Netherlands), age 7-9 months and weighing approximately 3 kg (number of […] per group: 13-14). During the acclimatization period the rabbits were fed a diet of standard commercial rabbit chow LKK20 (Hope Farms, Woerden, The Netherlands). Three weeks prior to the start of the experiment the animals were anaesthetized and underwent bilateral ovariectomy (OVX) or were sham operated. After three weeks, at the start of the experiment, the rabbits were randomized over the treatment groups.
The animals were randomly allocated into 7 experimental groups using a randomized block design. […] One group was fed the standard rabbit chow (LKK20). Food intake was restricted to 80 grams daily.
as §4, with “Groups” for “The treatments (Table I) were daily administered orally as a tablet, prepared as in Example 1. Groups”
as §5, §7
Group 5 was on treatment with 17β-estradiol decanoate (300 µg in 1 ml arachis oil injected subcutaneously once a week).
The amount of protein in the tissue was determined by the method of Lowry.

[4] = system: female ovariectomized rabbits; assay: Fatty streaks in the aortic arch (Sudan Red, image analysis); settings: for Fatty streak in aortic arch: cholesterol diet, OVX, necropsy at 20 weeks
Procedure: as §1, §2, §3, §4, §5, §6, §7, §8
The aortic arch was dissected free, opened longitudinally and fixed in 2% paraformaldehyde. The tissue was then stained for lipids using 0.3% (w/v) Sudan Red. Colour photographs were taken of all segments. […]

[5] = Plasma estradiol and plasma tibolone levels at week 17; settings: rabbit, 6 mg per day
Procedure: as §5
The plasma levels indicate that both modes of administration of estradiol lead to effective plasma levels. Using the human doses of estradiol and Org OD14 used for HRT treatment and corrected for the caloric intake it was expected that in the rabbit an oral dose of 4 mg estradiol is about equipotent with 6 mg Org OD14.

[6] = Example 2, Group 4: 6 mg orally daily
[7] = Example 2, Group 5: 2 mg orally daily
[8] = Example 3: 0.15 mg orally once daily
[9] = Example 3: 0.6 mg orally once daily

C#C[C@]1(O)CC[C@H]2[C@@H]3[C@H](C)CC4=C(CCC(=O)C4)[C@H]3CC[C@@]21C [Org OD14, 7α-methyl-17α-ethynyl-17β-hydroxy-estra-5(10)-en-3-one]
Body weight [1, 6]: 2758 ± 41 grams | Body weight [1, 7]: 2815 ± 50 grams | Body weight [1, 8]: 2850 ± 42 grams | Body weight [1, 9]: 3008 ± 58 grams | Uterus weight per 100 grams body weight [2, 6]: 0.24 ±0.06 per 100 grams body weight | Uterus weight per 100 grams body weight [2, 7]: 0.29 ±0.03 per 100 grams body weight | uterus weight increase (estrogenic activity, in words) ([2]; Example 2: Org OD14 2 and 6 mg per day): to a similar extent as both estradiol treatments | increase of uterus weight ([2]; Example 3, text: Org OD14 (0.15 mg dose per Table IV), versus placebo 0.054): 144% | uterus weight ([2]; Example 3, text: Org OD14 (0.15 mg dose per Table IV), placebo 0.054): 0.132 grams per 100 grams body weigh | Uterus weight per 100 grams body weight [2, 8]: 0.132 ±0.013 per 100 grams body weight | Uterus weight per 100 grams body weight [2, 9]: 0.224 ±0.016 per 100 grams body weight | Cholesterol level in aortic arch [3, 6]: 52 ± 9 nmol/mg protein | Cholesterol level in aortic arch [3, 7]: 61 ± 11 nmol/mg protein | cholesterol accumulation in the aortic arch (in words) ([3]; Example 2: Org OD14 2 and 6 mg, E2 4 mg orally daily): completely prevented cholesterol accumulation | Cholesterol level in aortic arch [3, 8]: 297 ± 67 nmol/mg protein | Cholesterol level in aortic arch [3, 9]: 97 ± 23 nmol/mg protein | Fatty streak in aortic arch [4, 6]: 1.3 ± 0.8 % of arcus covered | Fatty streak in aortic arch [4, 7]: 1.4 ± 0.7 % of arcus covered | Fatty streak formation in the aortic arch (in words) ([4]; Example 2: Org OD14 2 and 6 mg, E2 4 mg orally daily, E2D 150 µg s.c. weekly): (nearly) completely prevented the fatty streak formation | Fatty streak in aortic arch [4, 8]: 23.5 ± 5.3 % of arcus covered | Fatty streak in aortic arch [4, 9]: 5.9 ± 2.4 % of arcus covered | plasma concentrations of Org OD14 [5]: comparable to those obtained in women with the clinical dose of 2.5 mg
